Test system: P12-Ichikawa
Experiment: cell viability relative to DMSO control; higher = less cytotoxic
Conditions: 48 h
Procedure, shortened: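 Viability values are per-plate percentages of DMSO wells, with background from cell-free wells. Library compounds in DMSO were pin-dosed, in an 11-point threefold series from 47 μM to 0.79 nM, onto NOMO1 or SEM (500 cells/well) or P12-Ichikawa (1000 cells/well) leukemia cells in 1536-well plates (5 μl). Those cells had been adapted for at least four passages in each medium, and CellTiter-Glo One luminescence was read after 48 h at 37°C.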

[1] = HPLM + 10% dialyzed FBS, 0.000781 µM
[2] = HPLM + 10% dialyzed FBS, 0.00234 µM
[3] = HPLM + 10% dialyzed FBS, 0.00702 µM
[4] = HPLM + 10% dialyzed FBS, 0.0211 µM
[5] = HPLM + 10% dialyzed FBS, 0.0632 µM
[6] = HPLM + 10% dialyzed FBS, 0.19 µM
[7] = HPLM + 10% dialyzed FBS, 0.569 µM
[8] = HPLM + 10% dialyzed FBS, 1.71 µM
[9] = HPLM + 10% dialyzed FBS, 5.12 µM
[10] = HPLM + 10% dialyzed FBS, 15.4 µM
[11] = HPLM + 10% dialyzed FBS, 46.1 µM
[12] = RPMI 5 mM glucose + 10% FBS, 0.000781 µM
[13] = RPMI 5 mM glucose + 10% FBS, 0.00234 µM
[14] = RPMI 5 mM glucose + 10% FBS, 0.00702 µM
[15] = RPMI 5 mM glucose + 10% FBS, 0.0211 µM
[16] = RPMI 5 mM glucose + 10% FBS, 0.0632 µM
[17] = RPMI 5 mM glucose + 10% FBS, 0.19 µM
[18] = RPMI 5 mM glucose + 10% FBS, 0.569 µM
[19] = RPMI 5 mM glucose + 10% FBS, 1.71 µM
[20] = RPMI 5 mM glucose + 10% FBS, 5.12 µM
[21] = RPMI 5 mM glucose + 10% FBS, 15.4 µM
[22] = RPMI 5 mM glucose + 10% FBS, 46.1 µM
[23] = RPMI 5 mM glucose + 10% dialyzed FBS, 0.000781 µM
[24] = RPMI 5 mM glucose + 10% dialyzed FBS, 0.00234 µM
[25] = RPMI 5 mM glucose + 10% dialyzed FBS, 0.00702 µM
[26] = RPMI 5 mM glucose + 10% dialyzed FBS, 0.0211 µM
[27] = RPMI 5 mM glucose + 10% dialyzed FBS, 0.0632 µM
[28] = RPMI 5 mM glucose + 10% dialyzed FBS, 0.19 µM
[29] = RPMI 5 mM glucose + 10% dialyzed FBS, 0.569 µM
[30] = RPMI 5 mM glucose + 10% dialyzed FBS, 1.71 µM
[31] = RPMI 5 mM glucose + 10% dialyzed FBS, 5.12 µM
[32] = RPMI 5 mM glucose + 10% dialyzed FBS, 15.4 µM
[33] = RPMI 5 mM glucose + 10% dialyzed FBS, 46.1 µM

| Structure (SMILES) | cell viability [1] [%] | cell viability [2] [%] | cell viability [3] [%] | cell viability [4] [%] | cell viability [5] [%] | cell viability [6] [%] | cell viability [7] [%] | cell viability [8] [%] | cell viability [9] [%] | cell viability [10] [%] | cell viability [11] [%] | cell viability [12] [%] | cell viability [13] [%] | cell viability [14] [%] | cell viability [15] [%] | cell viability [16] [%] | cell viability [17] [%] | cell viability [18] [%] | cell viability [19] [%] | cell viability [20] [%] | cell viability [21] [%] | cell viability [22] [%] | cell viability [23] [%] | cell viability [24] [%] | cell viability [25] [%] | cell viability [26] [%] | cell viability [27] [%] | cell viability [28] [%] | cell viability [29] [%] | cell viability [30] [%] | cell viability [31] [%] | cell viability [32] [%] | cell viability [33] [%] |
| --- | --- | --- | --- | --- | --- | --- | --- | --- | --- | --- | --- | --- | --- | --- | --- | --- | --- | --- | --- | --- | --- | --- | --- | --- | --- | --- | --- | --- | --- | --- | --- | --- | --- |
| COc1cc2c(Nc3ccc(Cl)c(Cl)c3F)ncnc2cc1OC[C@@H]1C[C@@H]2CN(C)C[C@@H]2C1 | 95.2 | 102 | 108 | 112 | 100 | 110 | 104 | 104 | 108 | 81.8 | 5.15 | 95.3 | 102 | 98 | 105 | 109 | 112 | 114 | 110 | 119 | 106 | 5.73 | 108 | 114 | 108 | 113 | 117 | 117 | 115 | 111 | 113 | 89.6 | 4.74 |
| CC(C)[N+]1(C)C2CCC1CC(OC(=O)C(CO)c1ccccc1)C2.O.[Br-] (configuration not stated) | 98.5 | 111 | 116 | 112 | 123 | 124 | 123 | 109 | 50 | 14.1 | 7.93 | 125 | 123 | 129 | 126 | 128 | 125 | 137 | 132 | 127 | 52.5 | 13.8 | 113 | 113 | 119 | 117 | 124 | 112 | 118 | 115 | 102 | 34 | 19.3 |
| O=C1N\C=N/C2=C1C=N[NH]2 | 83.8 | 89.6 | 83.5 | 92.1 | 83.9 | 93.2 | 91.1 | 87.6 | 72.4 | 77.8 | 25.4 | 83.9 | 91.4 | 84 | 87.9 | 80.6 | 81.7 | 82.8 | 79.1 | 84.2 | 84.4 | 67.3 | 81.7 | 86.2 | 79.1 | 88.7 | 78.7 | 79.3 | 90.5 | 85.2 | 87.1 | 85.2 | 68 |
| CC[C@@H]1C(=O)N(C)c2cnc(Nc3ccc(C(=O)NC4CCN(C)CC4)cc3OC)nc2N1C1CCCC1 | 116 | 123 | 112 | 84.8 | 13.1 | 13.3 | 13.4 | 16 | 16.5 | 11.4 | 4.01 | 126 | 123 | 116 | 107 | 15.6 | 15.3 | 17.5 | 15.4 | 15 | 12.9 | 4.84 | 116 | 124 | 121 | 114 | 19.4 | 18.7 | 19.7 | 20.8 | 21.2 | 17.8 | 4.69 |
| CC(C)(O)C(=O)Nc1ccc([N+](=O)[O-])c(C(F)(F)F)c1 | 103 | 109 | 124 | 119 | 118 | 123 | 119 | 119 | 85.6 | 24 | 11.6 | 95.7 | 108 | 115 | 115 | 122 | 113 | 119 | 125 | 87 | 29.5 | 13.8 | 94.1 | 127 | 116 | 121 | 125 | 130 | 139 | 136 | 127 | 74.8 | 18.1 |
| CC(C)CC(N(C)C)C1(c2ccc(Cl)cc2)CCC1 (configuration not stated) | 114 | 120 | 105 | 113 | 114 | 111 | 105 | 86.3 | 57.7 | 54.9 | 34 | 109 | 115 | 113 | 109 | 106 | 112 | 94 | 82.2 | 51.4 | 48.7 | 49.1 | 106 | 114 | 106 | 107 | 111 | 110 | 86.7 | 76.2 | 49.9 | 45.3 | 41.6 |
| Nc1nc(NCCNc2ncc(-n3ccnc3)c(-c3ccc(Cl)cc3Cl)n2)ccc1[N+](=O)[O-] | 114 | 119 | 125 | 123 | 126 | 132 | 133 | 131 | 134 | 130 | 125 | – | – | – | – | – | – | – | – | – | – | – | – | – | – | – | – | – | – | – | – | – | – |
| CN1CCN(CCCN2c3ccccc3Sc3ccc(Cl)cc32)CC1.O=C(O)/C=C\C(=O)O.O=C(O)/C=C\C(=O)O | 108 | 108 | 105 | 105 | 106 | 107 | 114 | 99 | 108 | 36.1 | 34.8 | 119 | 110 | 125 | 126 | 119 | 137 | 122 | 112 | 114 | 29.5 | 31.2 | 106 | 105 | 106 | 108 | 116 | 112 | 111 | 110 | 104 | 28.1 | 32.1 |
